Molecules are shown by their SMILES.

The target in the test is T1, 11β-HSD 1 (Homo sapiens, UniProt P28845).
T1 construct: detecting cortisol generated from cortisterone by human liver microsomes; from tissue; host or cells: human liver microsomes
T1 sequence (P28845 whole entry): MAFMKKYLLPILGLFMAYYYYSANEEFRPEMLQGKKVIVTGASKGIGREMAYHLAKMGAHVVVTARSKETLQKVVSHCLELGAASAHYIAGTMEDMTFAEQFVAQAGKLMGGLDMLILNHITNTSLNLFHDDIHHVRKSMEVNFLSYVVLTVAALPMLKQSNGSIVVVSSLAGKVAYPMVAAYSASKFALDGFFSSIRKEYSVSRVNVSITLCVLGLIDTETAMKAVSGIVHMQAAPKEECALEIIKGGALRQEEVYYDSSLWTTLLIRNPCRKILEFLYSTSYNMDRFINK
In words: In vitro inhibition of 11β-HSD 1, HTRF detection of cortisol generated by human liver microsomes. Type of test: biochemical. The note with it: 1 μM test compound, 100% indicates no inhibition, zero or below zero indicates complete inhibition (relative to carbenoxolone). The gist of the method: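 Human liver microsomes with test compound were incubated 1 h at 37 °C in Tris buffer, pH 6.0, with 200 μM NADPH and 80 nM cortisone. Cortisol formed was detected by competitive HTRF immunoassay (665/615 nm ratio) and calibrated against a cortisol standard curve. Values are activities at 1 μM compound relative to carbenoxolone, where 100% indicates no inhibition.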
Regarding `O=C1Cc2ccc(C(=O)N3[C@@H]4CC[C@H]3C[C@@H](c3ccc(F)cc3)C4)cc2N1` [Example 46, endo-6-[3-(4-Fluoro-phenyl)-8-aza-bicyclo[3.2.1]octane-8-carbonyl]-1,3-dihydro-indol-2-one], the “Inhibitory activity on 11β-HSD 1, % CTL” value is listed as 97 % CTL. As for `NC(=O)c1cccc(C2CC3CCC(C2)N3C(=O)c2ccc3c(c2)OCCO3)c1` (centres unmarked) [Example 149, 3-[8-(2,3-Dihydro-benzo[1,4]dioxine-6-carbonyl)-8-aza-bicyclo[3.2.1]oct-3-yl]-benzamide], the figure is 30 % CTL; as for `O=C(c1ccccc1Cl)N1[C@@H]2CC[C@H]1C[C@@H](c1ccc(F)cc1)C2` [Example 111, endo-(2-Chloro-phenyl)-[3-(4-fluoro-phenyl)-8-aza-bicyclo[3.2.1]oct-8-yl]-methanone], 61 % CTL. On to `O=C(c1cccc(O)c1)N1[C@@H]2CC[C@H]1C[C@@H](c1ccc(F)cc1)C2` [Example 129, endo-[3-(4-Fluoro-phenyl)-8-aza-bicyclo[3.2.1]oct-8-yl]-(3-hydroxy-phenyl)-methanone], for which the “Inhibitory activity on 11β-HSD 1, % CTL” value is −1 % CTL. Turning to `C[Si](C)(C)c1ccc([C@H]2C[C@H]3CC[C@@H](C2)N3C(=O)c2ccc3c(c2)OCCO3)cc1` [Example 143, endo-(2,3-Dihydro-benzo[1,4]dioxin-6-yl)-[3-(4-trimethyl-silyl-phenyl)-8-aza-bicyclo[3.2.1]oct-8-yl]-methanone], the “Inhibitory activity on 11β-HSD 1, % CTL” value turned out to be 58 % CTL. With `Cc1cc2cc(C(=O)N3[C@@H]4CC[C@H]3C[C@@H](c3ccc(F)cc3)C4)ccc2[nH]1` [Example 50, endo-[3-(4-Fluoro-phenyl)-8-aza-bicyclo[3.2.1]oct-8-yl]-(2-methyl-1H-indol-5-yl)-methanone], the “Inhibitory activity on 11β-HSD 1, % CTL” value turned out to be 6 % CTL. On to `O=C(c1ccc2[nH]ccc2c1)N1[C@@H]2CC[C@H]1C[C@@H](c1ccc(F)cc1)C2` [Example 113, endo-[3-(4-Fluoro-phenyl)-8-aza-bicyclo[3.2.1]oct-8-yl]-(1H-indol-5-yl)-methanone], for which the “Inhibitory activity on 11β-HSD 1, % CTL” value was −23 % CTL.

With `Cc1ccc([C@H]2C[C@H]3CC[C@@H](C2)N3C(=O)c2cccs2)cc1` [Example 15, endo-Thiophen-2-yl-(3-p-tolyl-8-aza-bicyclo[3.2.1]oct-8-yl)-methanone], the “Inhibitory activity on 11β-HSD 1, % CTL” value stood at 56 % CTL. As for `O=C(c1ccc(F)c(F)c1)N1[C@@H]2CC[C@H]1C[C@@H](c1ccc(F)cc1)C2` [Example 77, endo-(3,4-Difluoro-phenyl)-[3-(4-fluoro-phenyl)-8-aza-bicyclo[3.2.1]oct-8-yl]methanone], the figure is 47 % CTL. Consider `Nc1c(Cl)cc(C(=O)N2[C@@H]3CC[C@H]2C[C@@H](c2ccc(F)cc2)C3)cc1Cl` [Example 178, endo-(4-Amino-3,5-dichloro-phenyl)-[3-(4-fluoro-phenyl)-8-aza-bicyclo[3.2.1]oct-8-yl]-methanone], for which the “Inhibitory activity on 11β-HSD 1, % CTL” value was −22 % CTL. The value for `O=C(c1ccc2c(c1)OCCO2)N1C2CCC1CC(c1ccc(Cl)cc1F)C2` (centres unmarked) [Example 144, [3-(4-Chloro-2-fluoro-phenyl)-8-aza-bicyclo[3.2.1]oct-8-yl]-(2,3-dihydro-benzo[1,4]dioxin-6-yl)-methanone] was −59 % CTL; that for `O=C(c1ccc(OC2CSC2)cc1)N1[C@@H]2CC[C@H]1C[C@@H](c1ccc(F)cc1)C2` [Example 31, endo-[3-(4-Fluoro-phenyl)-8-aza-bicyclo[3.2.1]oct-8-yl]-[4-(thietan-3-yloxy)-phenyl]-methanone] was 86 % CTL. Regarding `COc1cccc(C(=O)N2[C@@H]3CC[C@H]2C[C@@H](c2ccc(F)cc2)C3)c1OC` [Example 127, endo-(2,3-Dimethoxy-phenyl)-[3-(4-fluoro-phenyl)-8-aza-bicyclo[3.2.1]oct-8-yl]-methanone], the “Inhibitory activity on 11β-HSD 1, % CTL” value was 85 % CTL. In the case of `O=C(c1ccc2nn[nH]c2c1)N1[C@@H]2CC[C@H]1C[C@@H](c1ccc(F)cc1)C2` [Example 120, endo-(3H-Benzotriazol-5-yl)-[3-(4-fluoro-phenyl)-8-aza-bicyclo[3.2.1]oct-8-yl]-methanone], the “Inhibitory activity on 11β-HSD 1, % CTL” value is reported as 25 % CTL.

The values above are taken from patent publication US8609690B2, “Aryl- and heteroarylcarbonyl derivatives of substituted nortropanes, medicaments containing such compounds and their use” (Boehringer Ingelheim International GmbH, priority 2008, dated 2013).
